Test results from ChEMBL document CHEMBL5038624, “Construction and activity evaluation of novel dual-target (SE/CYP51) anti-fungal agents containing amide naphthyl structure” (Eur J Med Chem, 2022).
Converted amounts (≈) assume the structure as drawn. The source made the active and inactive calls. The calls are words filed in the database; no cut-off is given here.

Tests used:
Candida albicans [1] = assay: Antifungal activity against Candida albicans SC5314 assessed as reduction in fungal growth incubated for 72 hrs by CLSI protocol based broth microdilution method; assay type: functional
Nakaseomyces glabratus = assay: Antifungal activity against Candida glabrata ATCC 0001 assessed as reduction in fungal growth incubated for 72 hrs by CLSI protocol based broth microdilution method; assay type: functional
Pichia kudriavzevii = assay: Antifungal activity against Candida krusei ATCC 6258 assessed as reduction in fungal growth incubated for 72 hrs by CLSI protocol based broth microdilution method; assay type: functional
Candida tropicalis = assay: Antifungal activity against Candida tropicalis ATCC 1369 assessed as reduction in fungal growth incubated for 72 hrs by CLSI protocol based broth microdilution method; assay type: functional
Aspergillus fumigatus = assay: Antifungal activity against Aspergillus fumigatus KM8001 assessed as reduction in fungal growth incubated for 72 hrs by CLSI protocol based broth microdilution method; assay type: functional
Candida albicans [2] = assay: Antifungal activity against Candida albicans strain 17 assessed as reduction in fungal growth incubated for 72 hrs by CLSI protocol based broth microdilution method; assay type: functional
Candida albicans [3] = assay: Antifungal activity against Candida albicans strain CaR assessed as reduction in fungal growth incubated for 72 hrs by CLSI protocol based broth microdilution method; assay type: functional
Candida albicans [4] = assay: Antifungal activity against Candida albicans strain 632 assessed as reduction in fungal growth incubated for 72 hrs by CLSI protocol based broth microdilution method; assay type: functional
Candida albicans [5] = assay: Antifungal activity against Candida albicans strain 901 assessed as reduction in fungal growth incubated for 72 hrs by CLSI protocol based broth microdilution method; assay type: functional
Candida albicans [6] = assay: Antifungal activity against Candida albicans strain 904 assessed as reduction in fungal growth incubated for 72 hrs by CLSI protocol based broth microdilution method; assay type: functional
Candida albicans [7] = assay: Antifungal activity against Candida albicans ATCC SC5314 assessed as decrease in fungal cell density by fluorescence microscopy; assay type: functional, organism-based
Candida albicans [8] = assay: Induction of apoptosis against Candida albicans ATCC SC5314 assessed as viable cells measured after 48 hrs by Annexin V-FITC/propidium iodide staining based flow cytometry (reference value: 80.78 %); assay type: functional
Candida albicans [9] = assay: Induction of apoptosis against Candida albicans ATCC SC5314 assessed as mild apoptotic cells measured after 48 hrs by Annexin V-FITC/propidium iodide staining based flow cytometry (Rvb =0.29 %); assay type: functional
Candida albicans [10] = assay: Induction of apoptosis against Candida albicans ATCC SC5314 assessed as necrotic cells measured after 48 hrs by Annexin V-FITC/propidium iodide staining based flow cytometry (reference value: 18.22 %); assay type: functional
Candida albicans [11] = assay: Induction of apoptosis against Candida albicans ATCC SC5314 assessed as late apoptotic cells measured after 48 hrs by Annexin V-FITC/propidium iodide staining based flow cytometry (reference value: 0.71 %); assay type: functional
Candida albicans [12] = assay: Antifungal activity against Candida albicans ATCC SC5314 assessed as irregular cell structure incubated for 48 hrs by TEM analysis; assay type: functional, organism-based
Candida albicans [13] = assay: Antifungal activity against Candida albicans ATCC SC5314 assessed as irregular cell structure incubated for 72 hrs by TEM analysis; assay type: functional, organism-based
Candida albicans [14] = assay: Antifungal activity against Candida albicans ATCC SC5314 assessed as disappearance of fungal cell boundaries incubated for 96 hrs by TEM analysis; assay type: functional, organism-based
Candida albicans [15] = assay: Inhibition of SE/CYP51 in Candida albicans ATCC SC5314 assessed as ergosterol level incubated for 48 hrs by LC/MS analysis; parameters: scale not given: the % may be the effect or the level left
Candida albicans [16] = assay: Inhibition of SE/CYP51 in Candida albicans ATCC SC5314 assessed as squalene level incubated for 48 hrs by LC/MS analysis; parameters: scale not given: the % may be the effect or the level left
Candida albicans [17] = assay: Inhibition of SE/CYP51 in Candida albicans ATCC SC5314 assessed as lanosterol level incubated for 48 hrs by LC/MS analysis; parameters: scale not given: the % may be the effect or the level left
Candida albicans [18] = assay: Inhibition of SE/CYP51 in Candida albicans ATCC SC5314 assessed as eburicol level incubated for 48 hrs by LC/MS analysis; parameters: scale not given: the % may be the effect or the level left
Candida albicans [19] = assay: Inhibition of SE/CYP51 in Candida albicans ATCC SC5314 assessed as unknown sterol level incubated for 48 hrs by LC/MS analysis; parameters: scale not given: the % may be the effect or the level left
[20] = Inhibition of SE in Candida albicans ATCC SC5314 measured after 30 mins by HPLC analysis
[21] = target: Lanosterol 14-alpha demethylase (Candida albicans (strain SC5314 / ATCC MYA-2876) (Yeast), UniProt P10613); assay: Inhibition of CYP51 in Candida albicans ATCC SC5314 measured after 30 mins by HPLC analysis
Chain of Lanosterol 14-alpha demethylase (P10613 whole entry): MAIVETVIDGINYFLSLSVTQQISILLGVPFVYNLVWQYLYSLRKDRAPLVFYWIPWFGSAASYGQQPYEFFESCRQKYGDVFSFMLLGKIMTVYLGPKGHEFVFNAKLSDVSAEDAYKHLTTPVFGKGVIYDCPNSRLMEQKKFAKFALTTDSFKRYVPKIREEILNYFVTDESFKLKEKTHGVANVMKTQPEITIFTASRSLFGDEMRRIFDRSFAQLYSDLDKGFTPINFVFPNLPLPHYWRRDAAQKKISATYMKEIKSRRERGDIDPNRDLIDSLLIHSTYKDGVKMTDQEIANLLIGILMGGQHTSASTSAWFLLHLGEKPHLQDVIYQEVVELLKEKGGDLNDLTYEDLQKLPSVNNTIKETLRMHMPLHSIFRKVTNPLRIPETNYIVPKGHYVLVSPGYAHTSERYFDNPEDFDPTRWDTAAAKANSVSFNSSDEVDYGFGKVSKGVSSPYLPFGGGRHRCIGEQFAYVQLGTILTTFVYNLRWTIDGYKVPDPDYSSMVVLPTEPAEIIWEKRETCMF

Candida albicans [22] = assay: Antifungal activity against Candida albicans ATCC SC5314 infected in mouse assessed as reduction on endothelial fungal infection at 4 mg/kg,ip administrated every 2 days for 14 days by hematoxylin-eosin staining based assay; assay type: functional, organism-based; conditions: time 14.0 day
[23] = Toxicity in mouse infected with Candida albicans ATCC SC5314 assessed as effect on lung at 4 mg/kg,ip administrated every 2 days for 14 days by hematoxylin-eosin staining based assay; assay type: organism-based; conditions: in vivo, 336 h, time 14 day
[24] = Toxicity in mouse infected with Candida albicans ATCC SC5314 assessed as effect on liver at 4 mg/kg,ip administrated every 2 days for 14 days by hematoxylin-eosin staining based assay; assay type: organism-based; conditions: in vivo, 336 h, time 14 day
[25] = Toxicity in mouse infected with Candida albicans ATCC SC5314 assessed as effect on spleen at 4 mg/kg,ip administrated every 2 days for 14 days by hematoxylin-eosin staining based assay; assay type: organism-based; conditions: in vivo, 336 h, time 14 day
[26] = Toxicity in mouse infected with Candida albicans ATCC SC5314 assessed as effect on kidney at 4 mg/kg,ip administrated every 2 days for 14 days by hematoxylin-eosin staining based assay; assay type: organism-based; conditions: in vivo, 336 h, time 14 day
[27] = Toxicity in mouse infected with Candida albicans ATCC SC5314 assessed as effect on heart at 4 mg/kg,ip administrated every 2 days for 14 days by hematoxylin-eosin staining based assay; assay type: organism-based; conditions: in vivo, 336 h, time 14 day
[28] = Toxicity in mouse assessed as effect on aspartate transaminase level; conditions: in vivo
[29] = Toxicity in mouse assessed as effect on alanine transaminase level; conditions: in vivo
[30] = Toxicity in mouse assessed as effect on blood urea nitrogen level; conditions: in vivo
Candida albicans [31] = assay: Antifungal activity against Candida albicans ATCC SC5314 infected in mouse assessed as decrease in fungal infection at 4 mg/kg,ip administrated every 2 days for 14 days; assay type: functional, organism-based; conditions: time 14.0 day
Mus musculus = assay: Antifungal activity against Candida albicans ATCC SC5314 infected in mouse assessed as increase in body weight at 4 mg/kg,ip administrated every 2 days for 14 days; assay type: functional, organism-based; conditions: time 14.0 day

Structure (SMILES): O=C(/C=C/c1cccc2ccccc12)NC(Cn1cncn1)c1ccccc1 (stereo unspecified)
- MIC50 (Candida albicans [1]): 0.125 µg/mL (≈ 0.339 µM)
- MIC50 (Nakaseomyces glabratus): 0.25 µg/mL (≈ 0.679 µM)
- MIC50 (Pichia kudriavzevii): 0.25 µg/mL (≈ 0.679 µM)
- MIC50 (Candida tropicalis): 0.125 µg/mL (≈ 0.339 µM)
- MIC50 (Aspergillus fumigatus): 2 µg/mL (≈ 5.43 µM)
- MIC50 (Candida albicans [2]): 2 µg/mL (≈ 5.43 µM)
- MIC50 (Candida albicans [3]): 2 µg/mL (≈ 5.43 µM)
- MIC50 (Candida albicans [4]): 2 µg/mL (≈ 5.43 µM)
- MIC50 (Candida albicans [5]): 1 µg/mL (≈ 2.71 µM)
- MIC50 (Candida albicans [6]): 2 µg/mL (≈ 5.43 µM)
- Activity (Candida albicans [7]): Active
- Activity (Candida albicans [8]): 52.27%
- Activity (Candida albicans [9]): 0.26%
- Activity (Candida albicans [10]): 46.23%
- Activity (Candida albicans [11]): 1.24%
- Activity (Candida albicans [12]): Active
- Activity (Candida albicans [13]): Active
- Activity (Candida albicans [14]): Active
- Activity (Candida albicans [15]): 19.2%
- Activity (Candida albicans [16]): 29.5%
- Activity (Candida albicans [17]): 11.4%
- Activity (Candida albicans [18]): 32.9%
- Activity (Candida albicans [19]): 7%
- IC50 [20]: 930 nM
- IC50 [21]: 209 nM
- Activity (Candida albicans [22]): Active
- Activity [23]: Non-Toxic
- Activity [24]: Non-Toxic
- Activity [25]: Non-Toxic
- Activity [26]: Non-Toxic
- Activity [27]: Non-Toxic
- Activity [28]: 118 IU/L
- Activity [29]: 101.6 IU/L
- Activity [30]: 6.1 mmol/L
- Activity (Candida albicans [31]): Active
- Activity (Mus musculus): Active
